Calls of active or inactive are those of the source. No cut-off for these calls is given here.
Assays:
[1] = Cytostatic activity against African green monkey Vero cells by MTT assay; assay type: ADME, cell-based; conditions: chlorocebus sabaeus
[2] = Cytostatic activity against human MRC5 cells by MTT assay; assay type: ADME, cell-based
[3] = Cytostatic activity against African green monkey BSC1 cells by MTT assay; assay type: ADME, cell-based, BSC-1; conditions: chlorocebus aethiops
[4] = Cytotoxicity against African green monkey Vero cells assessed as change in cell morphology after 24 to 96 hrs by light microscopic analysis; assay type: cell-based; conditions: chlorocebus sabaeus
[5] = Cytotoxicity against human MRC5 cells assessed as change in cell morphology after 24 to 96 hrs by light microscopic analysis; assay type: cell-based
[6] = Cytotoxicity against African green monkey BSC1 cells assessed as change in cell morphology after 24 to 96 hrs by light microscopic analysis; assay type: cell-based, BSC-1; conditions: chlorocebus aethiops
Human alphaherpesvirus 3 = test: Antiviral activity against Varicella-zoster virus VR-1367 infected in African green monkey BSC1 cells assessed as inhibition of virus plaque formation; assay type: functional, organism-based; conditions: BSC-1
Human betaherpesvirus 5 = test: Antiviral activity against Cytomegalovirus VR-538 infected in human MRC5 cells assessed as inhibition of virus-induced cytopathogenicity; assay type: functional, organism-based
Human alphaherpesvirus 2 = test: Antiviral activity against Herpes simplex virus type 2 VR-734 infected in African green monkey Vero cells assessed as inhibition of virus-induced cytopathogenicity; assay type: functional, organism-based
Human alphaherpesvirus 1 = test: Antiviral activity against Herpes simplex virus type 1 VR-260 infected in African green monkey Vero cells assessed as inhibition of virus-induced cytopathogenicity; assay type: functional, organism-based
Human adenovirus 2 = test: Antiviral activity against Adenovirus 2 VR-1080 infected in African green monkey Vero cells assessed as inhibition of virus-induced cytopathogenicity; assay type: functional, organism-based
Coxsackievirus B4 = test: Antiviral activity against Coxsackievirus B4 VR-1035 infected in African green monkey Vero cells assessed as inhibition of virus-induced cytopathogenicity; assay type: functional, organism-based
Echovirus E9 = test: Antiviral activity against Human echovirus 9 VR-1050 infected in African green monkey Vero cells assessed as inhibition of virus-induced cytopathogenicity; assay type: functional, organism-based
Poliovirus 1 = test: Antiviral activity against Poliovirus 1 Sabin VR-1562 infected in African green monkey Vero cells assessed as inhibition of virus-induced cytopathogenicity; assay type: functional, cell-based; conditions: Human poliovirus 1 strain Sabin

Row | SMILES | CC50 [1] [µM] | CC50 [2] [µM] | CC50 [3] [µM] | MCC [4] [µM] | MCC [5] [µM] | MCC [6] [µM] | inhibition (Human alphaherpesvirus 3) | inhibition (Human betaherpesvirus 5) | inhibition (Human alphaherpesvirus 2) | inhibition (Human alphaherpesvirus 1) | inhibition (Human adenovirus 2) | inhibition (Coxsackievirus B4) | inhibition (Echovirus E9) | inhibition (Poliovirus 1)
1 | CN1OC(n2cc3ccoc3nc2=O)CC1CO (racemic) | 125 | > 250 | 62 | > 500 | > 250 | > 250 | inactive | inactive | inactive | inactive | inactive | inactive | inactive | inactive
2 | CCCCCc1ccc(-c2cc3cn(C4CC(CO)N(C)O4)c(=O)nc3o2)cc1 (racemic) | 3 | 1.5 | 0.7 | 6 | 6 | 6 | inactive | inactive | inactive | inactive | inactive | inactive | inactive | inactive
3 | CN1OC(n2cc3cc(-c4ccccc4)oc3nc2=O)CC1CO (racemic) | 125 | 125 | 32 | 125 | > 250 | > 250 | inactive | inactive | inactive | inactive | inactive | inactive | inactive | inactive
4 | CCCc1cc2cn(C3CC(CO)N(C)O3)c(=O)nc2o1 (stereo not drawn) | 31.2 | 31.2 | 7 | > 500 | > 250 | > 250 | inactive | inactive | inactive | inactive | inactive | inactive | inactive | inactive
5 | Nc1nc2c(ncn2COCCO)c(=O)[nH]1 | – | – | – | – | – | – | Active | Active | Active | Active | Active | Active | Active | Active
6 | COc1ccc(-c2cc3cn(C4CC(CO)N(C)O4)c(=O)nc3o2)cc1 (racemic) | 62.5 | 31.2 | 7 | 62.5 | 62 | 62 | inactive | inactive | inactive | inactive | inactive | inactive | inactive | inactive
